Biological target: T1, human α7 nAChR (Homo sapiens, UniProt P36544)
T1 construct: expressed in transfected cells; host or cells: GH4C1 cells derived from rat pituitary (ATCC CCL-82.2)
Assay: Evaluation of PAM activity with human α7 nACh receptor stably expressing cells (aequorin luminescence, FDSS7000)
Type: cell-based
Conditions: result in words; ratio of RLU (Max-Min) to control wells, ACh EC20
How it was run: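 Rat pituitary GH4C1 cells stably expressing human α7 nAChR and aequorin, loaded 4 h at room temperature with 4 μmol/L substrate, in Hanks/20 mM HEPES pH 7.4. After compound then ACh addition, 465 nm luminescence recorded 138 s; PAM activity is RLU (Max-Min) ratio to control wells.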

T1 sequence (P36544 23-502): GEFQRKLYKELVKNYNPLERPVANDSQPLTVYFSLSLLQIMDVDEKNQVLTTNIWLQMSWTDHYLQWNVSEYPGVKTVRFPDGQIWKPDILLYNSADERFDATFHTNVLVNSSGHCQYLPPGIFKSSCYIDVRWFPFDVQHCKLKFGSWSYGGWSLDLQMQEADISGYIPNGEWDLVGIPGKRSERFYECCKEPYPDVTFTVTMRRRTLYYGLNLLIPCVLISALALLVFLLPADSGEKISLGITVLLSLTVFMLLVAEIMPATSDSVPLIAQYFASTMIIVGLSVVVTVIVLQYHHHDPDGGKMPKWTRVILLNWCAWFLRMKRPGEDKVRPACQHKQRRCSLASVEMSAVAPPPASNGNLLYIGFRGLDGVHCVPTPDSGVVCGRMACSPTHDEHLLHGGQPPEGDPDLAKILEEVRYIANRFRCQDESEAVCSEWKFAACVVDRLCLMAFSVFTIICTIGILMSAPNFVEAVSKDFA

| SMILES | PAM activity for α7 nAChR |
| --- | --- |
| CCOc1ccc2c(cnn2C2CCN(C(=O)NC3CCCCC3)CC2)c1 [Example 18, N-cyclohexyl-4-(5-ethoxy-1H-indazol-1-yl)piperidine-1-carboxamide] | stronger PAM activity than others |
| CCc1ccc2c(cnn2C2CCN(C(=O)NC3CCCC3)CC2)c1 [Example 20] | stronger PAM activity than others |
| CCc1ccc2c(cnn2[C@H]2CC[C@@H](NC(=O)C3CCCCC3)CC2)c1 [Example 119] | stronger PAM activity than others |

Same assay, conditions: test compound 10 μmol/L; ACh added at EC20; ratio of RLU (Max-Min) of test wells to control wells

| SMILES | α7PAM (%) @ 10 μmol/L [%] |
| --- | --- |
| COc1ccc2c(cnn2C2CCN(C(=O)NC3CCCC3(F)F)CC2)c1 (stereo not shown) [Example 88] | 1063 |
| CC(C)c1ccc2c(cnn2C2CCN(C(=O)NC3CCOCC3)CC2)c1 [Example 14] | 728 |
| CCOc1ccc2c(cnn2C2CCN(C(=O)C3CCCC3)CC2)c1 [Example 110] | 291 |
| CC(C)Oc1ccc2c(cnn2C2CCN(C(=O)c3ccc(F)cn3)CC2)c1 [Example 115] | 182 |
| CCOc1ccc2c(cnn2C2CCN(C(=O)NC3CCOCC3)CC2)c1 [Example 19] | 306 |
| Cc1ccc2c(cnn2C2CCN(C(=O)NC3CCCC(F)(F)C3)CC2)c1 (stereo not shown) [Example 82] | 888 |
| CCOc1ccc2c(cnn2C2CCN(C(=O)c3ccc(F)cc3)CC2)c1 [Example 112] | 265 |
| [2H]C([2H])([2H])O[C@H]1CC[C@H](NC(=O)N2CCC(n3ncc4cc(OC(F)(F)F)ccc43)CC2)CC1 [Example 226, N-{trans-4-[(^2H3)methoxy]cyclohexyl}-4-[5-(trifluoromethoxy)-1H-indazol-1-yl]piperidine-1-carboxamide] | 594 |
| CCc1ccc2c(cnn2[C@H]2CC[C@@H](C(=O)NC3CCCCC3)CC2)c1 [Example 127] | 806 |
| CCc1ccc2c(cnn2C2CCN(C(=O)C3CCC(F)(F)CC3)CC2)c1 [Example 113] | 654 |
| CCc1ccc2c(cnn2C2CCN(C(=O)NC3CCCC3)CC2)c1 [Example 20] | 2215 |
| CCN(C(=O)N1CCC(n2ncc3ccccc32)CC1)C1CCC(OC)CC1 (stereo not shown) [Example 51] | 295 |
| O=C(C1CCOCC1)N1CCC(n2ncc3cc(F)ccc32)CC1 [Example 104] | 190 |
| CCc1ccc2c(cnn2[C@H]2CC[C@@H](C(=O)NC3CCC(OC)CC3)CC2)c1 (stereo partly shown) [Example 130] | 252 |
| [2H]C([2H])([2H])O[C@H]1CC[C@H](NC(=O)N2CCC(n3ncc4cc(C)ccc43)CC2)CC1 [Example 295, 4-(5-methyl-1H-indazol-1-yl)-N-{trans-4-[(^2H3)methoxy]cyclohexyl}piperidine-1-carboxamide] | 1143 |
| CCc1ccc2c(cnn2C2CCN(C(=O)C3CCOCC3)CC2)c1 [Example 111] | 410 |
| CCOc1ccc2c(cnn2C2CCN(C(=O)c3ccc(F)cn3)CC2)c1 [Example 114] | 189 |
| CCc1ccc2c(cnn2[C@H]2CC[C@@H](NC(=O)C3CCCCC3)CC2)c1 [Example 119] | 2154 |
| CCc1ccc2c(cnn2[C@H]2CC[C@@H](C(=O)NC3CCOCC3)CC2)c1 [Example 129] | 325 |
| CCCc1ccc2c(cnn2C2CCN(C(=O)C3CCOCC3)CC2)c1 [Example 108] | 207 |
| CCc1ccc2c(c1)c(OC)nn2C1CCN(C(=O)NC2CCOCC2)CC1 [Example 150] | 643 |
| CC(C)Oc1ccc2c(cnn2C2CCN(C(=O)C3CCC(F)(F)CC3)CC2)c1 [Example 116] | 279 |

Results, then the compound that gave them:

| α7PAM (%) @ 10 μmol/L [%] | SMILES |
| --- | --- |
| 742 | COc1cccc2c1cnn2C1CCN(C(=O)NC2CCC(F)(F)CC2)CC1 [Example 182] |
| 949 | [2H]C([2H])([2H])c1ccc2c(cnn2C2CCN(C(=O)NC3CCC(OCC)CC3)CC2)c1 (stereo not shown) [Example 314] |
| 307 | COC(C)c1c(C)ccc2c1cnn2C1CCN(C(=O)N[C@H]2CC[C@H](OC)CC2)CC1 (stereo partly shown) [Example 233] |
| 406 | [2H]C([2H])([2H])Oc1nn(C2CCN(C(=O)NC3CCOCC3)CC2)c2ccc(C(F)(F)F)cc12 [Example 309] |
| 200 | CCOc1cccc2c1cnn2C1CCN(C(=O)N[C@H]2CC[C@@H](OC)CC2)CC1 [Example 184] |
| 689 | O=C(NC1CCCC1)N1CCC(n2ncc3cc(OC(F)(F)F)ccc32)CC1 [Example 229] |
| 824 | CCOc1ccc2c(cnn2C2CCN(C(=O)NC3CCC(COC)CC3)CC2)c1 (stereo not shown) [Example 234] |
| 413 | O=C(NC1CCOCC1)N1CCC(n2ncc3cc(OC(F)F)ccc32)CC1 [Example 292] |
| 924 | COc1ccc2c(c1)c(C1CCOCC1)nn2C1CCN(C(=O)NC2CCC(F)(F)CC2)CC1 [Example 261] |
| 1215 | O=C(NC1CCC(F)(F)CC1)N1CCC(n2ncc3c(OC4CC4)cccc32)CC1 [Example 250] |
| 525 | CO[C@H]1CC[C@H](NC(=O)N2CCC(n3ncc4c(C)c(OC(F)F)ccc43)CC2)CC1 [Example 293] |
| 889 | COc1ccc(CNC(=O)N2CCC(n3ncc4cc(C5CC5)ccc43)CC2)cc1 [Example 193] |
| 302 | O=C(NC1CCC1)N1CCC(n2ncc3cc(OC(F)(F)F)ccc32)CC1 [Example 299] |
| 1382 | O=C(NC1CCCC1)N1CCC(n2ncc3cc(C4CC4)ccc32)CC1 [Example 171] |
| 207 | CO[C@H]1CC[C@@H](NC(=O)N2CCC(n3ncc4c(C5CC5)cccc43)CC2)CC1 [Example 160] |
| 370 | O=C(NC1CCC(F)(F)CC1)N1CCC(n2ncc3c(OC(F)F)cccc32)CC1 [Example 201] |

| α7PAM (%) @ 10 μmol/L [%] | SMILES |
| --- | --- |
| 340 | O=C(NC1CCOCC1)N1CCC(n2ncc3cc(C(F)(F)F)ccc32)CC1 [Example 297] |
| 833 | CCc1nn(C2CCN(C(=O)N[C@H]3CC[C@H](OC)CC3)CC2)c2ccc(OC)cc12 [Example 240] |
| 185 | COc1ccc2c(cnn2C2CCN(C(=O)N[C@H]3CC[C@H](OC)CC3)CC2)c1C [Example 279] |
| 729 | COc1ccc2c(cnn2C2CCN(C(=O)NC3CCC(F)(F)CC3)CC2)c1OC [Example 305] |
| 218 | CCc1c(OC)ccc2c1cnn2C1CCN(C(=O)N[C@H]2CC[C@H](OC)CC2)CC1 [Example 288] |
| 292 | CCOc1nn(C2CCN(C(=O)NC3CCOCC3)CC2)c2ccc(C(F)(F)F)cc12 [Example 267] |
| 257 | CO[C@H]1CC[C@H](NC(=O)N2CCC(n3ncc4c(F)c(C)ccc43)CC2)CC1 [Example 223] |
| 1031 | COCC1CCC(NC(=O)N2CCC(n3ncc4cc(Br)ccc43)CC2)CC1 (stereo not shown) [Example 238] |
| 278 | O=C(NCc1ccccc1)N1CCC(n2ncc3cc(C4CC4)ccc32)CC1 [Example 194] |
| 825 | Cc1c(Br)ccc2c1cnn2C1CCN(C(=O)NC2CCC(F)(F)CC2)CC1 [Example 286] |
| 134 | [2H]C([2H])([2H])Oc1nn(C2CCN(C(=O)NC3CCC(F)(F)CC3)CC2)c2ccc(C(F)(F)F)cc12 [Example 310] |
| 292 | CCc1cccc2c1cnn2C1CCN(C(=O)N[C@H]2CC[C@@H](OC)CC2)CC1 [Example 158] |
| 274 | CC(C)Oc1cccc2c1cnn2C1CCN(C(=O)NC2CCCCC2)CC1 [Example 180] |
| 611 | COCC1CCC(NC(=O)N2CCC(n3ncc4cc(OC(C)C)ccc43)CC2)CC1 (stereo not shown) [Example 235] |
| 1874 | Cc1ccc2c(cnn2C2CCN(C(=O)N[C@H]3CC[C@H](OCC4CC4)CC3)CC2)c1 [Example 162] |

Same assay, conditions: test compound 10 μmol/L; ACh added at EC20; ratio of RLU (Max-Min) of test wells to control wells; read-out: α7PAM (%) @ 10 μmol/L

| SMILES | activity at 10 µM [%] |
| --- | --- |
| CCOc1ccc2c(cnn2C2CCN(C(=O)C3CCC(F)(F)CC3)CC2)c1 [Example 3, (4,4-difluorocyclohexyl)(4-(5-ethoxy-1H-indazol-1-yl)piperidin-1-yl)methanone] | 512 |
| O=C(NC1CCC(F)(F)CC1)N1CCC(n2ncc3cc(Cl)ccc32)CC1 [Example 34, 4-(5-chloro-1H-indazol-1-yl)-N-(4,4-difluorocyclohexyl)piperidine-1-carboxamide] | 445 |
| CCc1ccc2c(cnn2[C@H]2CC[C@@H](C(=O)NC3CCC(F)(F)CC3)CC2)c1 [Example 6, cis-N-(4,4-difluorocyclohexyl)-4-(5-ethyl-1H-indazol-1-yl)cyclohexanecarboxamide] | 285 |

Now from value to compound:

| activity at 10 µM [%] | SMILES |
| --- | --- |
| 845 | Cc1c(C2CC2)ccc2c1cnn2C1CCN(C(=O)NC2CCOCC2)CC1 [Example 283, 4-(5-cyclopropyl-4-methyl-1H-indazol-1-yl)-N-(tetrahydro-2H-pyran-4-yl)piperidine-1-carboxamide] |
| 442 | CCOc1c(CC)ccc2c1cnn2C1CCN(C(=O)N[C@H]2CC[C@H](OC)CC2)CC1 [Example 272, 4-(4-ethoxy-5-ethyl-1H-indazol-1-yl)-N-(trans-4-methoxycyclohexyl)piperidine-1-carboxamide] |
